Key:
[1] = system: small-intestinal enzyme liquid; assay: Decomposition of a saccharide alone (control solution) by small-intestinal enzyme liquid; type: biochemical, rat
Description: (§1) Palatinose (trade name: Palatinose IC, ex Shin Mitsui Sugar Co., Ltd.) (test sample) was used as a sample for investigating each enzyme activity inhibitory effect. Maltose and sucrose were used as substrates for maltase and sucrose, respectively. The test sample and the substrates were dissolved in 0.1 M phosphate buffer (pH 6.8) at the concentration shown in Table 1 below to prepare test solutions (Solutions 4 and 5). Also, the test sample or the substrates were dissolved in 0.1 M phosphate buffer (pH 6.8), respectively to at the concentration shown in Table 1 below to prepare control solutions (Solution 1 for the test sample and Solutions 2 and 3 for the substrates).
(§2) Two grams of rat small-intestinal acetone powder (ex Sigma Corporation) were dissolved in 20 ml of 0.1 M phosphate buffer (pH 6.8), left standing one day at 5° C., and subsequently subjected to centrifugal separation (8000 rpm×15 min.). The supernatant was filtered through a 0.8 μm membrane filter to obtain a small-intestinal enzyme liquid. This liquid contained a mixture of enzymes present in small intestine, such as sucrose, glucoamylase, maltase, and isomaltase.
(§3) Each 0.25 ml of the small-intestinal enzyme liquid was added to each 5 ml of Solutions 1 through 5 and placed in a water bath at 37° C. to allow them to react for 60 min. while shaken at 60 strokes/min. After the reaction, they were heated in a boiling water bath for 3 min. for inactivation of the enzymes.
(§4) The glucose concentration in each solution after the reaction was measured using the F-kit Glucose (ex Roche). A liberated glucose concentration (g/l) was calculated by subtracting the blank value (0.1 M phosphate buffer alone) and the concentration of glucose originally contained in the test sample from each glucose concentration measured.
The fructose concentration was measured using the F-kit Fructose (ex Roche). The liberated fructose concentration, g/l, was obtained by subtracting the blank value (0.1 M phosphate buffer alone) from the resultant fructose concentration.
The procedures in Example 1 were repeated with the exception that palatinit, palatinose or isomaltose was used as a test sample and lactose was used as a substrate. The test samples and the substrate were dissolved in 0.1 M phosphate buffer (pH 6.8) to attain the concentration shown in Table 5 to thereby prepare three test solutions. Besides, each of the test samples or the substrate was dissolved in 0.1 M phosphate buffer (pH 6.8) to attain the concentration shown in Table 5 to thereby prepare control solutions. Each 5 ml of the aforementioned test solutions and the control solutions was subjected to the enzymatic reaction according to the same procedures as in Example 1. The glucose concentration, the fructose concentration and the galactose concentration were measured. The galactose concentration was measured using F-kit Galactose (ex Roche). The liberated galactose concentration, g/l, was calculated by subtracting the blank value (0.1 M phosphate buffer alone) from the measured galactose concentration.

[2] = biological target: T1, sucrose-isomaltase complex (Rattus norvegicus, UniProt P23739); assay: Confirmation test: decomposability of the sucrose-isomaltase complex (crude enzyme) on dextrin; type: biochemical; settings: 37° C., 20 min
T1 construct: tissue Sigma Corporation; host or cells: rat small intestine (acetone powder); papain treatment, 45-65% ammonium sulfate cut, dialysis, DEAE-Cellulose fraction with highest sucrase activity
Description: Decomposability of the sucrose-isomaltase complex on dextrin was investigated in order to confirm that decomposition of starch in the following Examples 4, 6 and 7 and Test Example 5 was attained by glucoamylase, but not by sucrose or isomaltase.
A. Extraction of a crude enzyme, sucrose-isomaltase complex Twenty grams of rat small-intestinal acetone powder (ex Sigma Corporation) were added to 180 ml of 50 mM potassium phosphate buffer (pH 7.0) and extracted for 4 hours while slowly stirred at room temperature, to which 6.5 ml of a cysteine solution (100 mg/10 ml) and 1.5 ml of a papain solution (MP Biomedicals, LLC 80 mg/2 ml) were subsequently added and the mixture was incubated at 37° C. for 1 hour to conduct a papain treatment. Then, a supernatant was recovered by centrifugal separation (8000 rpm×15 min.) and further filtered by aspiration using Toyo Filter Paper No. 2 to obtain 164 ml of a crude enzyme solution. Protein was precipitated at an ammonium sulfate concentration of 45% from the crude enzyme solution and then a supernatant was recovered by centrifugal separation (8000 rpm×15 min.). Next, ammonium sulfate was added to the supernatant up to a concentration of 65% to precipitate protein, and then the precipitate was recovered by centrifugal separation (8000 rpm×15 min.). […] The enzymatic activity was measured for each fraction and the fraction with the highest activity of a sucrose-isomaltase complex was recovered to obtain a 12 ml crude enzyme solution. The sucrose-isomaltase complex activity was determined by measuring a decomposition activity for sucrose in each fraction. […] A glucose concentration was determined using the F-kit Glucose (ex Roche) described in item D below. […]
A glucose concentration in each sample after the reaction was measured using the F-kit Glucose (ex Roche Corporation). A liberated glucose concentration (g/l) was calculated by subtracting a blank value (0.1 M phosphate buffer alone (pH 6.8)) and a concentration of glucose originally contained in the test sample (dextrin and sucrose) from the determined glucose concentration.

sucrase = biological target: T2, sucrase (Rattus norvegicus, UniProt P23739); assay: Sucrase activity inhibition with rat small-intestinal enzyme liquid, substrate sucrose; type: biochemical; settings: 5% sucrose + 5% test sample
T2 construct: This liquid contained a mixture of enzymes present in small intestine, such as sucrose, glucoamylase, maltase, and isomaltase; tissue Sigma Corporation; host or cells: rat small intestine (acetone powder), buffer extract, unpurified
Description: as §1, §2, §3, §4
(§5) Next, each of the liberated glucose concentration was input in the following equation to obtain decomposition inhibition ratio for maltase and sucrose. In the present tests, the substrates and the inhibitors were decomposed by enzymes present in the small-intestinal enzyme liquid. However, the enzymes decomposing the substrates are different from the enzymes decomposing the inhibitors. The decomposition inhibition ratio was determined as a measure for the inhibitory effect. When the inhibitor was added, the glucose concentration was lower than that seen when the substrate alone was reacted. A higher decomposition inhibition ratio means a stronger inhibitory effect.
(§6) Decomposition inhibition ratio,%={(A+B)−(AB)}+(A+B)×100 [Equation 1]
(§7) wherein (A+B) indicates a sum of a liberated glucose concentration in the control solution containing the test sample alone after the reaction (A) and a liberated glucose concentration in the control solution containing the substrate alone after the reaction (B); and (AB) indicates a liberated glucose concentration in the test solution containing the test sample (A) and the substrate (B), after the reaction.
The procedures in Example 1 were repeated with the exception that the test solutions contained 5% of sucrose and 0.5%, 1.0%, 3.0% or 5.0% of palatinose to examine intensity of the sucrose activity inhibition. A control solution contained 5% of sucrose in 0.1 M phosphate buffer (pH 6.8).
The procedures in Example 1 were repeated with the exception that palatinit and palatinose were used as test samples and sucrose was used as a substrate. The test samples and the substrate were dissolved in 0.1 M phosphate buffer (pH 6.8) to attain the concentration shown in Table 3 to thereby prepare two test solutions. Besides, each one of the test samples or the substrate was dissolved in 0.1 M phosphate buffer (pH 6.8) to attain the concentration shown in Table 3 to thereby prepare control solutions. Each 5 ml of the aforementioned test solutions or the control solutions was subjected to the enzymatic reaction according to the same procedures as in Example 1. The glucose concentration and the fructose concentration were measured. […]

glucoamylase = assay: Glucoamylase activity inhibition with rat small-intestinal enzyme liquid, substrate soluble starch; type: biochemical; settings: 5% soluble starch + 5% test sample
Description: as §2, §3, §4, §5, §6, §7
The procedures in Example 1 were repeated with the exception that palatinose and palatinit were used as a test sample and soluble starch was used as a substrate. The test samples and the substrate were dissolved in 0.1 M phosphate buffer (pH 6.8) to attain the concentration shown in Table 6 to thereby prepare two test solutions. Besides, each of the test samples or the substrate was dissolved in 0.1 M phosphate buffer (pH 6.8) to attain the concentration shown in Table 6 to thereby prepare control solutions. Each 5 ml of the aforementioned test solutions and the control solutions was subjected to the enzymatic reaction according to the same procedures as in Example 1 and the liberated glucose concentration and the decomposition inhibition ratio were measured.
The procedures in Example 1 were repeated with the exception that trehalulose was used as a test sample and soluble starch was used as a substrate. The test sample and the substrate were dissolved in 0.1 M phosphate buffer (pH 6.8) to attain the concentration shown in Table 9 to thereby prepare a test solution. Besides, the test sample or the substrate was dissolved in 0.1 M phosphate buffer (pH 6.8) to attain the concentration shown in Table 9 to thereby prepare control solutions. Each 5 ml of the aforementioned test solution and the control solutions was subjected to the enzymatic reaction according to the same procedures as in Example 1 and the liberated glucose concentration and the decomposition inhibition ratio were measured.
The procedures in Example 1 were repeated with the exception that trehalose was used as a test sample and soluble starch was used as a substrate. […]

[3] = biological target: (Homo sapiens, UniProt P14410); settings: 5-75 mM sucrose as substrate, 5 mM trehalulose as inhibitor; cited from earlier work
[4] = 5% saccharide alone, Example 3 / Test Examples 2, 3
[5] = 5% saccharide alone, Example 5 / Test Example 4
[6] = crude enzyme liquid 0.125 ml, dextrin 2% (Sample 1) or sucrose 26.6 mM (Sample 3)

T1 sequence (P23739 33-1841 limits assumed, one chain of several): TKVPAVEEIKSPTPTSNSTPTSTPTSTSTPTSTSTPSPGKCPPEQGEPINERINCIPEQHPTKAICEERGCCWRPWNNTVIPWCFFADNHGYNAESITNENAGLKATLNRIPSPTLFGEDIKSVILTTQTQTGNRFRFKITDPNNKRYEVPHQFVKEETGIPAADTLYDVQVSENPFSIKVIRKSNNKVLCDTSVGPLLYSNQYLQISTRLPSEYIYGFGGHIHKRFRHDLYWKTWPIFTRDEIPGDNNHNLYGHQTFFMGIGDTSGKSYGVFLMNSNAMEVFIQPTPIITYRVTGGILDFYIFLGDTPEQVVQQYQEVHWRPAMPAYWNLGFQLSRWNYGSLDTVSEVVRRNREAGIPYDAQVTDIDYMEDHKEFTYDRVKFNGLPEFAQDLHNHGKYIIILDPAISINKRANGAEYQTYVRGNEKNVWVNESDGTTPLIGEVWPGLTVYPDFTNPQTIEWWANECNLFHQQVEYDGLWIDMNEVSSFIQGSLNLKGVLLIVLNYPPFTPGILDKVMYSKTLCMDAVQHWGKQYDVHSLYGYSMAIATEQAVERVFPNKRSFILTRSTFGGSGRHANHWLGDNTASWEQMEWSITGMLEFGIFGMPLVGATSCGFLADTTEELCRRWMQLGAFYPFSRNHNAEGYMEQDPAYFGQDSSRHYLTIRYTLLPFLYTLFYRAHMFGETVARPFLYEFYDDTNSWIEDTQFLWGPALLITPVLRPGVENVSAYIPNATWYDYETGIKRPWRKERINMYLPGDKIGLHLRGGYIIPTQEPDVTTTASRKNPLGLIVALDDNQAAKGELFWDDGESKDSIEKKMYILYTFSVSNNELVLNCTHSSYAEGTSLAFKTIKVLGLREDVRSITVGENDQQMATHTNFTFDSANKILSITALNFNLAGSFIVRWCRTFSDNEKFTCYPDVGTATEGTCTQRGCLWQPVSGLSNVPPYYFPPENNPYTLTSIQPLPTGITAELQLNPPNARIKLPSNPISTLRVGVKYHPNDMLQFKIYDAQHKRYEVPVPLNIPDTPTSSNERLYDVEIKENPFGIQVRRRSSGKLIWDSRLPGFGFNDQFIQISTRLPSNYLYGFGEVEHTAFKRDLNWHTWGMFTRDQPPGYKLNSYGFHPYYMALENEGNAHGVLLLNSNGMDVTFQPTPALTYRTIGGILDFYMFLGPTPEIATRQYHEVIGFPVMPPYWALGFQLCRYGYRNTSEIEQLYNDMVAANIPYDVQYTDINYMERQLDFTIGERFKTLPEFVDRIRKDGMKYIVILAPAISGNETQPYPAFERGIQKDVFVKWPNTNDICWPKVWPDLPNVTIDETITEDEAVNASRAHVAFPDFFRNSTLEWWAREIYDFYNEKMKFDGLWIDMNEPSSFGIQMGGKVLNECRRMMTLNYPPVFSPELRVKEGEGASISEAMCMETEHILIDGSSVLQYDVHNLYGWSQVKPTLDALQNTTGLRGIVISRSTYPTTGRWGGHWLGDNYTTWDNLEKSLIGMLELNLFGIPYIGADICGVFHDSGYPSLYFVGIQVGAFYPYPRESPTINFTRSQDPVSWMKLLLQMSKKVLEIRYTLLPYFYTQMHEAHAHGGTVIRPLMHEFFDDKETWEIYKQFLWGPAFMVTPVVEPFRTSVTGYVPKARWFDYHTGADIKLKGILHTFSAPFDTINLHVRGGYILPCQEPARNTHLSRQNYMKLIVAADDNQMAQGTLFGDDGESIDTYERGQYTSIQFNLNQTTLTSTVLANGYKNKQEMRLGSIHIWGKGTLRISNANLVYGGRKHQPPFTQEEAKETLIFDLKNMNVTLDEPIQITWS
T2 sequence (P23739 whole entry): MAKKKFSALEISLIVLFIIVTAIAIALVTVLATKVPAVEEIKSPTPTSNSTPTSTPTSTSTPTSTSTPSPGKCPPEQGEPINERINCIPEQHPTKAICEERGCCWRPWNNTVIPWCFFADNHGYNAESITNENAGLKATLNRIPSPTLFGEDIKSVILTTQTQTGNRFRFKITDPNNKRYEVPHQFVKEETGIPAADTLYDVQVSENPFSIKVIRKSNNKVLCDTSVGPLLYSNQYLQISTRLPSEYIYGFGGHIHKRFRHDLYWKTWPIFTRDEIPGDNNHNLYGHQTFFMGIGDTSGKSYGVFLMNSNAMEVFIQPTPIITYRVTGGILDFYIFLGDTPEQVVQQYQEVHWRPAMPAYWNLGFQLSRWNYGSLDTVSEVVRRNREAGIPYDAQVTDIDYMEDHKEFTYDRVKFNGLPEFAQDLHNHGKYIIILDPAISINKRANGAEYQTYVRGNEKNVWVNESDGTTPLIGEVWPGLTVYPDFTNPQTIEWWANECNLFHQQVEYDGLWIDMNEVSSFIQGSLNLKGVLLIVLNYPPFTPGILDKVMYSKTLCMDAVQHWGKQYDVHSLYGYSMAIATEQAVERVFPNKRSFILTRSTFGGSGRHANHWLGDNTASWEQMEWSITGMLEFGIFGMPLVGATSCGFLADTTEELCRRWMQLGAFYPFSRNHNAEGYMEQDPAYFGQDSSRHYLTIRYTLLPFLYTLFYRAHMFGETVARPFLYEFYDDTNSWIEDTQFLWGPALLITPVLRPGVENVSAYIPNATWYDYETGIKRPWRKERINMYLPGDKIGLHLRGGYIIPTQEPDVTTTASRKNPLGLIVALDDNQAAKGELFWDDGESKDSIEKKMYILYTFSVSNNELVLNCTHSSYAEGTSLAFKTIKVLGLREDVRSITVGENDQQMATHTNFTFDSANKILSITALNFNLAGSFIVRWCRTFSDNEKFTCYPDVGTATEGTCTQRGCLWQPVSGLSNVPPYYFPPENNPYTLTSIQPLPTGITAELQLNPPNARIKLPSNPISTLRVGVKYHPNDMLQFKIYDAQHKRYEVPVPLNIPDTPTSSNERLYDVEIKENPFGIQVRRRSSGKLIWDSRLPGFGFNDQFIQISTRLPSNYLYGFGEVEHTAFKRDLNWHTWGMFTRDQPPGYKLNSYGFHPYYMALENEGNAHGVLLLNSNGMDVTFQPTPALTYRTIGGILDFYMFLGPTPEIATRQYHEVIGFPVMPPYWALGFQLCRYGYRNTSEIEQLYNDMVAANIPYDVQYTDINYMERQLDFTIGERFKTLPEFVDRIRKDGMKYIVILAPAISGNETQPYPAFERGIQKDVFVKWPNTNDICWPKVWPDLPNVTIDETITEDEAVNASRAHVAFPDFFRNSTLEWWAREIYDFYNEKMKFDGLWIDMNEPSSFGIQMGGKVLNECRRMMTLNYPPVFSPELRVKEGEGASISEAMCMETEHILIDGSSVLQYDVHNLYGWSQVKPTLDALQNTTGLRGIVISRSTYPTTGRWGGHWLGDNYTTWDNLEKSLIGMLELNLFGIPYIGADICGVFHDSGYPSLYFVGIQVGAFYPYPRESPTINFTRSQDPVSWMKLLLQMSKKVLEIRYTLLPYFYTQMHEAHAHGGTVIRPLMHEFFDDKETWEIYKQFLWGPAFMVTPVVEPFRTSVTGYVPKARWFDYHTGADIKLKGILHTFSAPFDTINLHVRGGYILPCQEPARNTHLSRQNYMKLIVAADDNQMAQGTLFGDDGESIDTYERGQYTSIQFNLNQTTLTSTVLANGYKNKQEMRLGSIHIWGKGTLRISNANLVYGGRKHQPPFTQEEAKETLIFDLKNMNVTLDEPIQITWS

Liberated glucose concentration ([1]; 5% saccharide alone, 37° C., 60 min, pH 6.8, Example 1 / Test Example 1)	Liberated fructose concentration [1, 4]	Liberated glucose concentration [1, 4]	Total concentration of liberated monosaccharides (glucose + fructose) ([1]; control solution with sucrose only, 5%)	Mean amount of produced glucose [2, 6]	Mean amount of produced glucose ([2]; crude enzyme liquid 0.25 ml, dextrin 2% (Sample 2))	Molecule	Liberated glucose concentration [1, 5]	Liberated glucose concentration ([1]; 5% saccharide alone, Example 6 / Test Example 5)	Sucrase activity inhibitory effect (in words) (sucrase)	Decomposition inhibition ratio, %, against sucrase (sucrase; Example 5 / Test Example 4)	Liberated glucose concentration (sucrase; Example 5 / Test Example 4)	Glucoamylase activity inhibitory effect (in words) (glucoamylase)	Decomposition inhibition ratio, %, against glucoamylase (glucoamylase; Example 6 / Test Example 5)	Liberated glucose concentration (glucoamylase; Example 6 / Test Example 5)	Inhibitory effect on the sucrase activity (reported) [3]
0.959 ± 0.022 g/L	1.09 g/L	1.01 g/L	2.10 g/L	0.474 g/L	–	OC[C@H]1O[C@@](CO)(O[C@H]2O[C@H](CO)[C@@H](O)[C@H](O)[C@H]2O)[C@@H](O)[C@@H]1O [sucrose]	1.628 g/L	–	–	–	–	–	–	–	–
–	–	–	–	0.057 g/L	0.088 g/L	dextrin	–	–	–	–	–	–	–	–	–
–	–	–	–	–	–	trehalulose	0.558 g/L	0.411 g/L	has the sucrose activity inhibitory effect	36%	1.403 g/L	has a glucoamylase activity inhibitory effect	28%	2.028 g/L	no inhibitory effect

Source: patent publication US20080206311A1, “Sucrase Activity Inhibitor, Glucoamylase Activity Inhibitor and Food and Feed Containing the Same” (MITSUI SUGAR CO., LTD., priority 2005, published 2008)
